Where two headings read alike, the source gives them in different places.
What was measured:
[1] = target: T1, 14-3-3ζ:BAD-112-136F interactions (Homo sapiens, UniProt P63104); experiment: BRET sensor screen for disruption of 14-3-3ζ-Rluc8:BAD-112-136F-mCitrine in living NIH-3T3 cells; format: cell-based, murine; parameters: inhibition: dose or concentration left out as unconfirmed; BRET reduction on NIH-3T3: unit not given here; settings: for inhibition / inhibition at 20 µM: NIH3T3, 3 h, read-out: BRET reduction on NIH-3T3
T1 construct: expressed in transfected cells; host or cells: NIH-3T3 fibroblasts, bi-directional pBI-CMV1 plasmid
T1 sequence (P63104 1-245): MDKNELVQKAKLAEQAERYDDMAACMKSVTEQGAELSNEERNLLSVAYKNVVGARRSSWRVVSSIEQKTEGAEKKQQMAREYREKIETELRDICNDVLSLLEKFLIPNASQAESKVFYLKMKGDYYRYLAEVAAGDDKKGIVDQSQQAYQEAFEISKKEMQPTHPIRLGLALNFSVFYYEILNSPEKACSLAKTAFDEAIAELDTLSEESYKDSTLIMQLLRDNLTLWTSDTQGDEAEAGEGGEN
Experimental: The Z’-score, which evaluates the robustness of an HTS assay readout, was calculated according to standard protocols. For the HTS, 384-well plates were coated with 100 μg/mL poly-L-ornithine (Sigma, Missouri, United States; #P3655) overnight at 37 °C, followed by rinsing with sterilized water. NIH-3T3 cells were transfected with the BRET sensor two days prior to experimentation, followed by replating onto the pre-coated 384-well plates at a density of 20,000 cells/well. After 24 h of incubation at 37 °C, growth media was replaced by Krebs buffer (pH 7.4).

NIH-3T3 cells = experiment: Hoechst/propidium iodide cell death assay in NIH-3T3; format: cell-based; settings: for cytotoxicity at 20 µM: Mus musculus, NIH3T3, 24 h, read-out: Percentage of cell death % 24h NIH3t3
Source text: (§1) A high-content imaging system (PerkinElmer; Operetta CLS), was used to quantify cell death and apoptosis by calculating the number of propidium iodide-positive cells relative to Hoechst-positive cells, and the number of Annexin V-positive cells relative to Hoechst-positive cells, respectively.

HT-29 cells = experiment: Hoechst/propidium iodide cell death assay in HT-29; format: cell-based, human; settings: for cytotoxicity at 20 µM: Homo sapiens
Source text: as §1

[2] = NIH-3T3 cells, hits from the primary screen
[3] = NIH-3T3 expressing BRET sensor, 20 µM, 3 h
[4] = HT-29, 24 h, 20 µM, 24 h, read-out: Percentage of cell death % 24h HT-29
[5] = HT-29, 48 h, HT-29, 48h, 20 μM, read-out: Percentage of cell death % 48h, HT-29

SMILES	inhibition [1, 2] [%]	inhibition at 20 µM [1, 3] [%]	cytotoxicity at 20 µM (NIH-3T3 cells; 20 µM, 24 h) [%]	Percentage of cell death % 48h, NIH3T3 (NIH-3T3 cells) [%]	cytotoxicity at 20 µM (HT-29 cells; [4]) [%]	cytotoxicity at 20 µM (HT-29 cells; [5]) [%]	BRET reduction on NIH-3T3 [1, 2]	BRET reduction on NIH-3T3 [1, 3]	Percentage of cell death % 24h NIH3t3 (NIH-3T3 cells; 20 µM, 24 h) [%]	Percentage of cell death % 24h HT-29 (HT-29 cells; 20 µM, 24 h) [%]	Percentage of cell death % 48h, HT-29 (HT-29 cells; HT-29, 48h, 20 μM) [%]	cytotoxicity at 20 µM (NIH-3T3 cells) [%]	cytotoxicity at 20 µM (HT-29 cells; HT-29, 24 h, read-out: Percentage of cell death % 24h HT-29) [%]	cytotoxicity at 20 µM (HT-29 cells; HT-29, 48 h, read-out: Percentage of cell death % 48h, HT-29) [%]
COc1cc(C(=O)NS(=O)(=O)c2ccccc2C)ccc1Cc1cn(C)c2ccc(NC(=O)OC3CCCC3)cc12 [Zafirlukast]	30.4	30.4	0.402	0.2485	0.343	0.917								
COc1cc2c(Oc3ccc4[nH]c(C)cc4c3F)ncnc2cc1OCCCN1CCCC1 [Cediranib (AZD217), Cediranib]	39.9	39.9	76.9	55.3041	11.9	83.5								
C[C@@H](O[C@H]1OCCN(Cc2n[nH]c(=O)[nH]2)[C@H]1c1ccc(F)cc1)c1cc(C(F)(F)F)cc(C(F)(F)F)c1 [Aprepitant]	26.6	26.6	1.15	2.577	1.47	3.76								
CC[C@H](c1ccc(O)cc1)[C@@H](CC)c1ccc(O)cc1 [Hexestrol]	36.7	36.7	5.47	3.549	1.37	3.31								
CN1CCN(c2ccc(C(=O)Nc3n[nH]c4ccc(Cc5cc(F)cc(F)c5)cc34)c(NC3CCOCC3)c2)CC1 [Entrectinib]	56.8	56.8	81.5	85.5203	58.1	80.4								
CC(C)=CCC/C(C)=C/CC/C(C)=C/CSc1ccccc1C(=O)O [Salirasib]	45.5	45.5	3.71	1.2519	0.693	1.28								
C=C(c1ccc(C(=O)O)cc1)c1cc2c(cc1C)C(C)(C)CCC2(C)C [Bexarotene]	29.5	29.5	3.81	2.3561	0.535	4.19								
Clc1ccc(COC(Cn2ccnc2)c2ccc(Cl)cc2Cl)c(Cl)c1 (centres unmarked) [Miconazole Nitrate]				6.033			52.8386	52.8386	12.1676	5.26	9.591			
Clc1ccc(C(c2ccccc2Cl)C(Cl)Cl)cc1 (centres unmarked) [Mitotane (Lsodren), Mitotane]	25.6	25.6	25.3	5.575	0.553	1.62								
CCOc1cc(CC(=O)N[C@@H](CC(C)C)c2ccccc2N2CCCCC2)ccc1C(=O)O [Repaglinide]	28.4	28.4	0.236	0.185	0.354	1.01								
C(=C\c1ccccc1)/CN1CCN(C(c2ccccc2)c2ccccc2)CC1 [Cinnarizine]			0.412	0.3398	0.381	1.26								
CC(C)(C)CC(C)(C)c1ccc(OCCOCC[N+](C)(C)Cc2ccccc2)cc1 [Benzethonium Chloride]				51.9198								51.9	43.5	90.4
C[C@H](CCC(=O)O)[C@H]1CC[C@H]2[C@@H]3[C@H](O)C[C@@H]4C[C@H](O)CC[C@]4(C)[C@H]3CC[C@]12C [Chenodeoxycholic Acid]	31.3	31.3	0.372	0.2284	1.21	2.27								
